Legend:
hCA I = hCA I (Homo sapiens, UniProt P00915); assay: CA activation, stopped-flow CO2 hydrase assay; assay type: biochemical; conditions: activation constant; mean from 3 assays, errors ±5–10%
Protocol: (§1) A stopped-flow method[38] has been used for assaying the CA catalysed CO2 hydration activity with Phenol red as indicator, working at the absorbance maximum of 557 nm, following the initial rates of the CA-catalysed CO2 hydration reaction for 10–100 s. For each activator, at least six traces of the initial 5–10% of the reaction have been used for determining the initial velocity. The uncatalyzed rates were determined in the same manner and subtracted from the total observed rates. Stock solutions of activator (0.1 mM) were prepared in distilled-deionized water and dilutions up to 0.1 nM were done thereafter with the assay buffer. The activation constant (KA), defined similarly with the inhibition constant (KI), was obtained by considering the classical Michaelis–Menten equation (Equation (3), which has been fitted by nonlinear least squares by using PRISM 3: v=vmax/{1+KM/[S](1+[A]f/KA)} (3) [drawing 4] where [A]f is the free concentration of activator.
(§2) Working at substrate concentrations considerably lower than KM ([S]≪KM), and considering that [A]f can be represented in the form of the total concentration of the enzyme ([E]t) and activator ([A]t), the obtained competitive steady-state equation for determining the activation constant is given by Equation 4: v=v0KA/{KA+[A]t–0.5{([A]t+[E]t+ KA)–([A]t+[E]t+ KA)^2–4[A]t[E]t^1/2}} (4) [drawing 5] where v0 represents the initial velocity of the enzyme-catalysed reaction in the absence of an activator[39–42]. Enzyme concentrations in the assay system were in the range of 6.5–12.0 nM.

hCA II = hCA II (Homo sapiens, UniProt P00918); assay: CA activation, stopped-flow CO2 hydrase assay; assay type: biochemical; conditions: for KA ratio [hCA II/hCA VII]: KA ratio for the indicated enzyme isoforms, value in square brackets; for KA hCA II: activation constant, mean from 3 assays, errors ±5–10%
Protocol: as §1, §2

hCA VII = hCA VII (Homo sapiens, UniProt P43166); assay: CA activation, stopped-flow CO2 hydrase assay; assay type: biochemical; conditions: activation constant; mean from 3 assays, errors ±5–10%
Protocol: as §1, §2

hCA VA = hCA VA (Homo sapiens, UniProt P35218); assay: CA activation, stopped-flow CO2 hydrase assay; assay type: biochemical; conditions: for KA ratio [hCA VA/hCA VII]: KA ratio for the indicated enzyme isoforms, value in square brackets; for KA hCA VA: activation constant, mean from 3 assays, errors ±5–10%; for hCA VA activation, judged in words: text comment on KA values
Protocol: as §1, §2

[1] = tested on: BDNF release from C20 human microglial cells; assay: BDNF enzyme-linked immunosorbent assay on conditioned medium; assay type: cell-based; conditions: 10 µM, 2 h treatment, medium collected after 24 h, ELISA, normalised on crystal violet
Protocol: All materials for cell culturing were obtained by Corning, New York, USA, and all used reagents were purchased by Sigma-Aldrich (Saint Louis, MO, USA). The human microglial cell line C20, originally generated by David Alvarez-Carbonell et al.[52], was grown in DMEM-F12 medium supplemented with 10% of FBS, 100 U/mL penicillin, 0.1 mg/mL streptomycin, and neomycin (600 μg/mL), as a selector of the immortalised telomerase-expressing cells. Cells were kept at 37 °C under a humidified atmosphere with […] and 5% CO2. Viable cells (identified by counting trypan-blue-excluding cellular elements) were plated at a density of 100,000 cells each well in a 24-well plate. […]
C20 cells were seeded in 24-well microplates at a density of 100,000 cells/well and maintained in complete culture media. […] At the end of the 24 h, the levels of BDNF were measured in the C20 conditioned medium using an enzyme-linked immunosorbent assay (ELISA) Kit (SEA011Mi 96 Tests, Cloude-Clone Corp., CCC, USA), accordingly to manufacture instructions. […] The enzyme-substrate reaction was terminated by the addition of sulphuric acid solution and the colour change was measured spectrophotometrically at a wavelength of 450 nm ± 10 nm. The concentration of BDNF in the samples was then determined by comparing the O.D. of the samples to the standard curve. […]

[2] = tested on: C20 human microglial cell line; assay: Cell viability (MTS) assay; assay type: cell-based; conditions: 24 h; for Cell viability of C20 cells: highest tested concentration (10 µM), vs vehicle (DMSO) control
Protocol: All materials for cell culturing were obtained by Corning, New York, USA, and all used reagents were purchased by Sigma-Aldrich (Saint Louis, MO, USA). The human microglial cell line C20, originally generated by David Alvarez-Carbonell et al.[52], was grown in DMEM-F12 medium supplemented with 10% of FBS, 100 U/mL penicillin, 0.1 mg/mL streptomycin, and neomycin (600 μg/mL), as a selector of the immortalised telomerase-expressing cells. Cells were kept at 37 °C under a humidified atmosphere with […] and 5% CO2. Viable cells (identified by counting trypan-blue-excluding cellular elements) were plated at a density of 100,000 cells each well in a 24-well plate. To evaluate the ability of target compounds to modulate the cellular viability and brain-derived neurotrophic factor (BDNF) release, C20 cells were challenged with CAAs.
C20 cells were seeded in 96-well microplates at a density of 5000 cells/well and maintained in complete culture media. The day after the seed, cells were treated with CAAs 7, 8, and 9 for 24 h (1 and 10 µM). The cell viability was determined using the [3–(4,5-dimethylthiazol-2-yl)-5–(3-carboxymethoxyphenol)-2–(4-sulfophenyl)-2H-tetrazolium, inner salt] (MTS) assay according to the manufacturer’s instructions (Promega, Milano, Italy). This tetrazolium dye can be reduced by the metabolic reducing agents NADH and NADPH to a water-soluble formazan salt. The amount of formazan produced is considered to be a marker of cell viability. The MTS reagent was added to treated C20 cells and the colorimetric conversion of formazane was quantified after 1 h by measuring the absorbance at 490 nm (EnSightTM multimode plate reader, equipped with Kaleido Data Acquisition and Analysis Software).

Chain of hCA VA (P35218 39-305): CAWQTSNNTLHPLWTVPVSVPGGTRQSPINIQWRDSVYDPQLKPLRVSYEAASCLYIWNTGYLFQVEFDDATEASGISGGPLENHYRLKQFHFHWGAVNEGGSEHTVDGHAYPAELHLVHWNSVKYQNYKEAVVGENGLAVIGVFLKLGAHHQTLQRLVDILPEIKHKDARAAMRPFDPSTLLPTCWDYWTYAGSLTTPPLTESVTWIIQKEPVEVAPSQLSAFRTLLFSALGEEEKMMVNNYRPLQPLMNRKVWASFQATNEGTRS
Chain of hCA VII (P43166 whole entry): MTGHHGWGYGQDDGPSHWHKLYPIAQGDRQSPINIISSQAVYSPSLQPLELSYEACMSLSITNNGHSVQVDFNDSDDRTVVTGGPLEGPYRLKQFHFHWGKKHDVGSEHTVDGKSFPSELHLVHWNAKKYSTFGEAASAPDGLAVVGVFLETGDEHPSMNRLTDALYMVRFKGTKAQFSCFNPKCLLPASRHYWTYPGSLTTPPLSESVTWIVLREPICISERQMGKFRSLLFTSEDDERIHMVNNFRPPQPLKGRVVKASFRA
Chain of hCA I (P00915 whole entry): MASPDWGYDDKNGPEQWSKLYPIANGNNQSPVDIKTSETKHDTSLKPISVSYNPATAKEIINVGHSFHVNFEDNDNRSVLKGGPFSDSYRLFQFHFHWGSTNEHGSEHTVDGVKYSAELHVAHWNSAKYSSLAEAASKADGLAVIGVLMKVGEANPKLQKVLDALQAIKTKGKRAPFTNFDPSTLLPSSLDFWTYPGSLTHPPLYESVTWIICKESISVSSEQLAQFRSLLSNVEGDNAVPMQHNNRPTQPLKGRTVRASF

## CN(C)CCCNC(=O)C(=O)c1cn(Cc2ccccc2)c2ccc(OCCO)cc12 [Compound 1, 2-(5-(2-Hydroxyethoxy)-1-benzyl-1H-indol-3-yl)-N-(3-(dimethylamino)propyl)glyoxylamide]
hCA I
  KA hCA I: > 100 µM
hCA II
  KA ratio [hCA II/hCA VII]: > 9.3
  KA hCA II: > 100 µM
hCA VII
  KA hCA VII: 10.8 µM
hCA VA
  KA ratio [hCA VA/hCA VII]: 2.3
  KA hCA VA: 25.0 µM

## CCN(CC)CCNC(=O)C(=O)c1cn(Cc2ccccc2)c2ccc(OCCO)cc12 [Compound 2, 2-(5-(2-Hydroxyethoxy)-1-benzyl-1H-indol-3-yl)-N-(2-(diethylamino)ethyl)glyoxylamide]
hCA I
  KA hCA I: 88.9 µM
hCA II
  KA ratio [hCA II/hCA VII]: > 10.0
  KA hCA II: > 100 µM
hCA VII
  KA hCA VII: 10.0 µM
hCA VA
  KA ratio [hCA VA/hCA VII]: 2.9
  KA hCA VA: 28.7 µM

## CN(C)CCCOc1ccc2c(c1)c(C(=O)C(=O)NCCCO)cn2Cc1ccccc1 [Compound 3, 2-(5-(3-(Dimethylamino)propoxy)-1-benzyl-1H-indol-3-yl)-N-(3-hydroxypropyl)glyoxamide]
hCA I
  KA hCA I: > 100 µM
hCA II
  KA ratio [hCA II/hCA VII]: > 9.4
  KA hCA II: > 100 µM
hCA VII
  KA hCA VII: 10.6 µM
hCA VA
  KA ratio [hCA VA/hCA VII]: 4.8
  KA hCA VA: 50.9 µM
  hCA VA activation, judged in words: poor activity
other
  melting point: 111 to 113 °C

## CCN(CC)CCOc1ccc2c(c1)c(C(=O)C(=O)NCCO)cn2Cc1ccccc1 [Compound 4, 2-(5-(2-(Diethylamino)ethoxy)-1-benzyl-1H-indol-3-yl)-N-(2-hydroxyethyl)glyoxamide]
hCA I
  KA hCA I: > 100 µM
hCA II
  KA ratio [hCA II/hCA VII]: > 11.0
  KA hCA II: > 100 µM
hCA VII
  KA hCA VII: 9.1 µM
hCA VA
  KA ratio [hCA VA/hCA VII]: 3.8
  KA hCA VA: 34.4 µM
other
  melting point: 116 to 118 °C

## CN(C)CCCOc1ccc2c(c1)c(C(=O)NCCO)cn2Cc1ccccc1 [Compound 5, 5-(3-(Dimethylamino)propoxy)-1-benzyl-N-(2-hydroxyethyl)-1H-indole-3-carboxamide]
hCA I
  KA hCA I: > 100 µM
hCA II
  KA ratio [hCA II/hCA VII]: > 9.6
  KA hCA II: > 100 µM
hCA VII
  KA hCA VII: 10.4 µM
hCA VA
  KA ratio [hCA VA/hCA VII]: 2.7
  KA hCA VA: 28.0 µM

## CN(C)CCOc1ccc2c(c1)c(C(=O)NCCO)cn2Cc1ccccc1 [Compound 6, 5-(2-(Dimethylamino)ethoxy)-1-benzyl-N-(2-hydroxyethyl)-1H-indole-3-carboxamide]
hCA I
  KA hCA I: > 100 µM
hCA II
  KA ratio [hCA II/hCA VII]: > 9.3
  KA hCA II: > 100 µM
hCA VII
  KA hCA VII: 10.7 µM
hCA VA
  KA ratio [hCA VA/hCA VII]: 2.5
  KA hCA VA: 26.8 µM

## CCN(CC)CCOc1ccc2c(c1)c(C(=O)NCc1ccccc1)cn2Cc1ccccc1 [Compound 7, 5-(2-(Diethylamino)ethoxy)-N,1-dibenzyl-1H-indole-3-carboxamide]
[1]
  BDNF levels in medium of C20 cells: significant increase in BDNF levels
hCA I
  KA hCA I: > 100 µM
hCA II
  KA ratio [hCA II/hCA VII]: > 13.3
  KA hCA II: > 100 µM
hCA VII
  KA hCA VII: 7.5 µM
hCA VA
  KA ratio [hCA VA/hCA VII]: 3.2
  KA hCA VA: 24.4 µM
[2]; 1 and 10 µM, any of the tested concentrations
  Cytotoxic activity on C20 cells: did not exhibit cytotoxic activity
[2]
  Cell viability of C20 cells: a little increase in cell viability
other
  melting point: 57 to 59 °C

## CCOC(=O)c1cn(Cc2ccccc2)c2ccc(OCCCN(C)C)cc12 [Compound 8, Ethyl 5-(3-(dimethylamino)propoxy)-1-benzyl-1H-indole-3-carboxylate]
hCA I
  KA hCA I: 69.1 µM
hCA II
  KA ratio [hCA II/hCA VII]: > 13.9
  KA hCA II: > 100 µM
hCA VII
  KA hCA VII: 7.2 µM
hCA VA
  KA ratio [hCA VA/hCA VII]: 8.3
  KA hCA VA: 59.8 µM
  hCA VA activation, judged in words: poor activity
[2]
  Cell viability of C20 cells: slight, although not statistically significant, reduction in cell viability
other
  melting point: 58 to 60 °C

## CCOC(=O)c1cn(Cc2ccccc2)c2ccc(OCCN(C)C)cc12 [Compound 9, Ethyl 5-(2-(dimethylamino)ethoxy)-1-benzyl-1H-indole-3-carboxylate]
hCA I
  KA hCA I: > 100 µM
hCA II
  KA ratio [hCA II/hCA VII]: > 12.2
  KA hCA II: > 100 µM
hCA VII
  KA hCA VII: 8.2 µM
hCA VA
  KA ratio [hCA VA/hCA VII]: 3.5
  KA hCA VA: 29.1 µM
[2]
  Cell viability of C20 cells: slight, although not statistically significant, reduction in cell viability
other
  melting point: 69 to 71 °C

## NCCc1c[nH]cn1 [Histamine, reference compound]
hCA I
  KA hCA I: 2.1 µM
hCA II
  KA hCA II: 125 µM
hCA VII
  KA hCA VII: 37.5 µM
hCA VA
  KA hCA VA: 0.010 µM

Source: PMC8344252, “Carbonic anhydrase activation profile of indole-based derivatives” (Journal of Enzyme Inhibition and Medicinal Chemistry, 2021)
